Data reported in patent publication US4091115A, “7-Amino-benzocycloheptenes” (Roussel Uclaf, priority 1975, dated 1978).
Where a name gives a salt, the structure may show the parent alone.

Key:
[1] = test system: effects of L-dopa; test: Potentiation of effects of L-dopa in mice pretreated with iproniazide; type: in vivo, male mice; conditions: Mus musculus, ip; i.p. one hour before L-dopa 100 mg/kg i.p.; iproniazide 75 mg/kg i.p. 18 hours before; read-out: ED50, dose which potentiates by 50% the L-dopa effects
Method: The administration of L-dopa to mice pretreated 18 hours previously with iproniazide produced certain number of symptoms; muscular hypertonically, hyperactivity, agitation, crying, aggressiveness, salivation and exophthalmy. The intensity of these effects is potentiated by administration of an antidepressant one hour before the administration of L-dopa. Male mices received intraperitoneally 75 mg/kg of iproniazide 18 hours before the start of the test and the tested product was intraperitoneally administered in aqueous solution in increasing doses. One hour later, L-dopa was intraperitoneally administered at a dose of 100 mg/kg and the different symptoms were observed 15 and 30 minutes later. They were evaluated on a scale of 0 to 3 for each animal and the totals for each dose were determined.

[2] = Acute toxicity in mice; type: in vivo; conditions: mouse, in vivo, ip, intraperitoneal
Method: (§1) The LD50 dose which kills 50% of mice after intraperitoneal administration of the tested compounds was determined 48 hours later and the results are reported in Table IV.

[3] = test system: effects of monoamine oxidase inhibitor (nialamide); test: Potentiation of effects of monoamine oxidase inhibitor (nialamide) in mice; type: in vivo; design: key: Potentiation of the effects of nialamide for the tested product was expressed in increasing number of + signs for a determined dose in mg/kg; ++: Potentiation of the effects of nialamide for the tested product was expressed in increasing number of + signs for a determined dose in mg/kg; +++: Potentiation of the effects of nialamide for the tested product was expressed in increasing number of + signs for a determined dose in mg/kg; conditions: nialamide 100 mg/kg i.p. 30 minutes before, actimetry 6 hours
Method: The administration of a monoamine oxidase inhibitor to mice induces a hyperactive movement of the animals which is able to be potentiated by an antidepressant. Using the procedure of Carlsson et al [Brain Research, Vol. 12 (1969), p. 456], a dose of 100 mg/kg of nialamide was intraperitoneally administered to mice 30 minutes before the intraperitoneal administration of the tested product and the values of actimetric measurements were recorded every 30 minutes for 6 hours. Potentiation of the effects of nialamide for the tested product was expressed in increasing number of + signs for a determined dose in mg/kg.

[4] = test system: effects of 5-HTP; test: Potentiation of effects of 5-HTP in mice; type: in vivo; conditions: Mus musculus, 1 h; i.p. one hour before 5-HTP 200 mg/kg i.p.; trembling observed for an hour; read-out: MAD (minimal active dose), potentiation of 5-HTP effects
Method: The administration of 5-hydroxytryptophane (5-HTP) to mice pretreated with an antidepressant induces in the animals a particular behavior, namely the appearance of trembling. The tested products were administered intraperitoneally at increasing doses one hour before the intraperitoneal administration of 5-HTP at an dose of 200 mg/kg. The symptoms were observed every 15 minutes for an hour to determine the miminal active dose (MAD) of the test product and the results are reported in Table II.

[5] = test system: serotonine (5HT) uptake in synaptosomes; test: Inhibition of Serotonine uptake in vitro (brain synaptosomes); type: biochemical, female rat 19 to 21 days old; conditions: rat whole brain synaptosomes, 37° C, 5 minutes, 14 C-5HT 10^-7 M; read-out: I.C. 50, Test in vitro (inhibition of 14 C-5HT uptake)
Method: The inhibition of serotonine (5HT) uptake was measured in impure synaptosomes prepared from the entire brain of a female rat 19 to 21 days old using the technique of Kannengiesser et al [Biochemical Pharmacology, Vol. 22, (1973) p. 73]. Diverse concentrations of the products were placed in an incubator with the preparation at 37° C for 5 minutes in the presence of 14 C-5HT at a concentration of 10^-7 M. The 50% inhibiting concentration (IC50), dose which inhibits by 50% the uptake of 14 C-5HT in the synaptosomes was determined graphically and the IC50 dose for the compounds is reported in Table V.

[6] = test system: uptake of 14 C-5HT in synaptosomes; test: Inhibition of Serotonine uptake in vivo (synaptosomes from treated rats); design: species or system female rats 19 to 21 days old; key: the activity was expressed in increasing number of + signs; ++: the activity was expressed in increasing number of + signs; +++: the activity was expressed in increasing number of + signs; conditions: i.p. 5 to 20 mg/kg; brain removed after 30 minutes
Method: The tested products were intraperitoneally administered to groups of female rats 19 to 21 days old at doses of 5 to 20 mg/kg. After 30 minutes, the brain was removed and synaptosomes were prepared and placed in an incubator in the presence of 14 C-5HT as indicated in the previous test.

[7] = test system: mice; test: Acute toxicity in mice; type: in vivo; conditions: intraperitoneal, 48 hours
Method: as §1

Row | SMILES | ED50 [1] [mg/kg] | LD50 at 48 h [2] [mg/kg] | Potentiation of nialamide ([3]; 5 mg/kg i.p.) | Potentiation of nialamide ([3]; 20 mg/kg i.p.) | minimal effective dose [4] [mg/kg] | IC50 [5] [nM] | Test in vivo (inhibition of 14 C-5HT uptake) [6] | Potentiation of nialamide ([3]; 1 mg/kg i.p.) | Potentiation of nialamide ([3]; 1-5 mg/kg i.p.) | LD50 [7] [mg/kg]
1 | CNC1C=C(c2ccccc2)c2ccccc2CC1 (stereo not shown) [Example 8, 7-methylamino-9-phenyl-6,7-dihydro [5H] benzocycloheptene hydrochloride] | 5 | 50 | – | – | – | – | – | – | – | –
2 | CNC1CCc2ccccc2CC1 [Example 7, 7-methylamino-6,7,8,9-tetrahydro [5H] benzocycloheptene hydrochloride] | 10 | 100 | + | ++ | – | – | – | – | – | –
3 | CNC1CCc2ccccc2C(c2ccccc2)C1 (stereo not shown) [Example 9, 7-methylamino-5-phenyl-6,7,8,9-tetrahydro [5H] benzocycloheptene hydrochloride] | 5 | 50 | – | – | 20 | – | – | – | – | –
4 | CNC1C=Cc2cc(Cl)ccc2CC1.Cl (stereo not shown) [Example 10 (2-chloro derivative), 2-chloro-7-methylamino-6,7-dihydro [5H] benzocycloheptene hydrochloride] | < 5 | 75 | +++ | – | 10 | 350 | +++ | +++ | – | –
5 | CN(C)C1CCc2ccccc2CC1 [Example 2, 7-dimethylamino-6,7,8,9-tetrahydro [5H] benzocycloheptene hydrochloride] | 5 | 100 | – | +++ | – | – | – | – | + | –
6 | CN(C)C1CCc2ccccc2C(c2ccccc2)C1 (single isomer, unassigned) [Example 5, 7-dimethylamino-5-phenyl-6,7,8,9-tetrahydro [5H] benzocycloheptene hydrochloride] | 2 | – | – | +++ | 10 | 150 | +++ | + | – | 50
7 | CN(C)C1CCc2ccccc2C(c2ccccc2)C1 (single isomer, unassigned) [Example 4, 7-dimethylamino-5-phenyl-6,7,8,9-tetrahydro [5H] benzocycloheptene hydrochloride] | – | 50 | – | – | – | – | – | – | – | –
8 | C=CCNC1C=Cc2ccccc2CC1 (stereo not shown) [Example 14, 7-allylamino-6,7-dihydro [5H] benzocycloheptene hydrochloride] | 20 | 150 | – | ++ | 50 | – | – | – | – | –
9 | CN(C)C1C=Cc2ccccc2CC1 (stereo not shown) [Example 1, 7-dimethylamino-6,7-dihydro [5H] benzocycloheptene hydrochloride] | < 5 | 75 | – | ++ | 20 | 510 | ++ | – | – | –
10 | CNC1C=Cc2ccccc2CC1 (stereo not shown) [Example 6, 7-methylamino-6,7-dihydro [5H] benzocycloheptene hydrochloride] | 10 | 75 | ++ | +++ | 5 | 1900 | ++ | – | – | –
11 | CN(C)C1C=C(c2ccccc2)c2ccccc2CC1 (stereo not shown) [Example 3, 7-dimethylamino-9-phenyl-6,7-dihydro [5H] benzocycloheptene hydrochloride] | 2 | 100 | – | – | – | – | – | – | – | –
12 | CN1CCN(C2C=Cc3ccccc3CC2)CC1 (stereo not shown) [Example 13, 7-(4-methylpiperazin-1-yl)-6,7,-dihydro [5H] benzocycloheptene difumarate] | 20 | 250 | – | ++ | 50 | – | – | – | – | –
13 | CCNC1C=Cc2ccccc2CC1 (stereo not shown) [Example 12, 7-ethylamino-6,7-dihydro [5H] benzocycloheptene hydrochloride] | 10 | 75 | – | – | 20 | – | – | – | – | –
14 | CNC1C=Cc2cccc(Cl)c2CC1 (stereo not shown) [Example 11, 4-chloro-7-methylamino-6,7-dihydro [5H] benzocyclopheptene hydrochloride] | 20 | 75 | + | +++ | 20 | 400 | + | – | – | –
